From the supplement of paper PMC10307832

Assays:
Assay in all cases: relative viability (nuclei count vs DMSO), 5 days (fraction); higher = more cells survive
[1] = compound: CN1CCN(c2ccc3nc(-c4c(N)c5c(F)cccc5[nH]c4=O)[nH]c3c2)CC1 [Dovitinib] + Cc1nc(NC(=O)N2CCC[C@H]2C(N)=O)sc1-c1ccnc(C(C)(C)C(F)(F)F)c1 [Alpelisib] (partner 2 µM)
Outline: (§1)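 Lung cancer cell lines, seeded in 1536-well plates, were treated the following day by pin tool with a single drug or with five library-drug doses (not always all listed) in √10 steps on top of a fixed anchor-drug dose. Cells were fixed and nuclei stained in one step after 5 days, and nuclei were counted. Relative viability is the nuclei count for treated wells divided by that for vehicle wells, reported as medians of duplicate plates.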

[2] = compound: CN1CCN(c2ccc3nc(-c4c(N)c5c(F)cccc5[nH]c4=O)[nH]c3c2)CC1 [Dovitinib] + C[C@]1(O)C[C@@H](c2nc(-c3ccc4ccc(-c5ccccc5)nc4c3)c3c(N)nccn32)C1 [Linsitinib] (partner 1 µM)
Outline: as §1

[3] = compound: CN1CCN(c2ccc3nc(-c4c(N)c5c(F)cccc5[nH]c4=O)[nH]c3c2)CC1 [Dovitinib] + Nc1ncn([C@H]2C[C@H](O)[C@@H](CO)O2)c(=O)n1 [Decitabine] (partner 2 µM)
Outline: as §1

[4] = compound: CN1CCN(c2ccc3nc(-c4c(N)c5c(F)cccc5[nH]c4=O)[nH]c3c2)CC1 [Dovitinib] + CS(=O)(=O)N1CCN(Cc2cc3nc(-c4cccc5[nH]ncc45)nc(N4CCOCC4)c3s2)CC1 [Pictilisib] (partner 1 µM)
Outline: as §1

Cell Line	relative viability ([1]; first compound 0.02 µM)	relative viability ([1]; first compound 0.06325 µM)	relative viability ([1]; first compound 0.2 µM)	relative viability ([1]; first compound 0.6325 µM)	relative viability ([1]; first compound 2 µM)	relative viability ([2]; first compound 0.02 µM)	relative viability ([2]; first compound 0.06325 µM)	relative viability ([2]; first compound 0.2 µM)	relative viability ([2]; first compound 0.6325 µM)	relative viability ([2]; first compound 2 µM)	relative viability ([3]; first compound 0.02 µM)	relative viability ([3]; first compound 0.06325 µM)	relative viability ([3]; first compound 0.2 µM)	relative viability ([3]; first compound 0.6325 µM)	relative viability ([3]; first compound 2 µM)	relative viability ([4]; first compound 0.02 µM)	relative viability ([4]; first compound 0.06325 µM)	relative viability ([4]; first compound 0.2 µM)	relative viability ([4]; first compound 0.6325 µM)	relative viability ([4]; first compound 2 µM)
NCI-H1792	0.674	0.617	0.745	0.725	0.676	0.621	0.44	0.602	0.598	0.522	0.539	0.6	0.468	0.502	0.505	0.315	0.205	0.294	0.288	0.291
NCI-H1355	0.797	0.796	0.864	0.764	0.82	0.821	0.886	0.856	0.801	0.812	0.363	0.351	0.371	0.336	0.371	0.459	0.305	0.478	0.479	0.48
SW 1573	0.785	0.798	0.703	0.657	0.753	0.798	0.795	0.749	0.766	0.864	0.479	0.516	0.612	0.397	0.629	0.487	0.545	0.483	0.382	0.512
A549	0.802	0.757	0.701	0.801	0.671	0.654	0.573	0.651	0.586	0.632	0.225	0.329	0.248	0.292	0.237	0.412	0.474	0.541	0.488	0.463
NCI-H2347	1.11	0.988	1.08	1.09	1.09	0.997	0.892	0.953	0.978	0.969	0.642	0.545	0.644	0.682	0.623	0.888	0.676	0.947	0.895	0.677
LCLC-97TM1	0.222	0.23	0.171	0.247	0.276	0.216	0.21	0.201	0.152	0.213	0.188	0.118	0.203	0.217	0.206	0.361	0.135	0.215	0.205	0.207
EMC-BAC-2	0.784	0.772	0.701	0.687	0.736	0.799	0.799	0.825	0.797	0.843	1.1	0.958	1.06	1	1.01	0.515	0.516	0.497	0.512	0.56
NCI-H1975	0.625	0.685	0.603	0.604	0.547	0.903	0.954	0.915	0.934	1.09	0.372	0.409	0.4	0.424	0.382	0.299	0.271	0.325	0.324	0.274
BEN	0.981	0.828	0.988	0.954	0.936	0.874	0.873	1.07	0.922	0.898	0.754	0.599	0.683	0.783	0.71	0.565	0.548	0.553	0.661	0.493
NCI-H23	0.788	0.638	0.766	0.631	0.627	0.546	0.664	0.623	0.57	0.506	0.309	0.329	0.346	0.284	0.291	0.44	0.444	0.451	0.493	0.433
NCI-H520	0.794	0.988	0.935	0.86	0.769	0.832	0.964	0.986	0.868	1.07	0.477	0.504	0.488	0.499	0.514	0.203	0.247	0.337	0.269	0.227
EPLC-272H	0.9	0.815	0.97	0.946	0.888	1.17	1.16	1.2	1.11	1.16	0.403	0.333	0.336	0.372	0.374	0.35	0.277	0.311	0.383	0.353
LCLC-103H	0.875	0.973	0.918	1.06	0.761	1.09	0.988	1.03	1.08	1.04	0.722	0.775	0.75	0.758	0.739	0.661	0.555	0.645	0.614	0.577
NCI-H2405	0.819	0.744	0.791	0.77	0.965	0.954	0.873	0.971	0.873	1.05	0.714	0.745	0.832	0.688	0.845	0.431	0.372	0.458	0.456	0.408
HCC-15	0.916	0.868	0.915	0.848	0.939	0.952	0.831	0.938	0.879	0.941	0.684	0.746	0.686	0.676	0.619	0.827	0.742	0.767	0.82	0.722
PC-3 [JPC-3]	1.03	1.01	1.02	1.09	0.909	0.923	0.907	0.983	0.99	0.967	0.949	0.882	0.859	0.804	0.898	0.742	0.75	0.818	0.897	0.877
